Experimental data as given in patent EP0880540B1, “17-BETA-CYCLOPROPYL(AMINO/OXY) 4-AZA STEROIDS AS ACTIVE INHIBITORS OF TESTOSTERONE 5-ALPHA-REDUCTASE AND C17-20-LYASE” (Aventis Pharmaceuticals Inc., priority 1996, dated 1997).

Biological target: T1, nude mouse testicular C17,20 lyase (Mus musculus, UniProt P27786)
T1 construct: from tissue; host or cells: testes of male athymic nude mice (Harlan Laboratories), 10,000 x g supernatant of homogenate
T1 sequence (P27786 1-507): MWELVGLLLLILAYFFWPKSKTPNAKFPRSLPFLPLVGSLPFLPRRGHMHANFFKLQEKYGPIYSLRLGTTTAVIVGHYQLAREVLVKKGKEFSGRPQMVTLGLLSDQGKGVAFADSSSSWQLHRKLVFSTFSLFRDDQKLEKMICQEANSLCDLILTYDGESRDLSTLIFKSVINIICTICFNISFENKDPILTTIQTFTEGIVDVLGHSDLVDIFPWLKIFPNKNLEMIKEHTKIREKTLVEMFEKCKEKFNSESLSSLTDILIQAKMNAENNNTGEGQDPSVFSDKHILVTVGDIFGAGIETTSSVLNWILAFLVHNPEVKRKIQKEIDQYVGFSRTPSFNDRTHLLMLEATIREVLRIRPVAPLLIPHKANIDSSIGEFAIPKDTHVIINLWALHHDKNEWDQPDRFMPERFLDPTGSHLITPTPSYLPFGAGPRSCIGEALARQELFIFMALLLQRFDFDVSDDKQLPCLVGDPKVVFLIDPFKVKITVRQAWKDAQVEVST
Test: Ex vivo inhibition of C17,20 lyase in nude mouse testes after oral dosing
Set-up: species or system male athymic nude mice
Settings: 4 hours after oral dosing
Method: Ex vivo inhibition of C17,20 lyase: MDL 103,432 was tested for ex vivo inhibition of rat and nude mouse testes lyase. Male Copenhagen rats and male athymic nude mice obtained from Harlan Laboratories, Indianapolis, IN, were divided into groups of 5 to 6 based on weight. Average weight was 100-140 g each for rats and 18-35 g each for the mice. Prior to oral dosing, animals were fasted overnight. Test compound was prepared by micronization in a lecithin vehicle using a glass Teflon® pestle-type homogenizer. The compound was brought to volume using lecithin so as to administer 0.5 mL per 100 g animal. Rats and nude mice were given vehicle only (controls) or vehicle plus test compounds peros. Rats were also given the compound in lecithin or lecithin alone subcutaneously. Each group consisted of 5-6 animals. At a specified time after dosing, the animals were anesthetized with CO2 gas, sacrificed by cervical dislocation, testes were excised, capsules were removed, and the tissue was weighed. […] Assays were terminated, extracted and analyzed as described above except that carrier steroids were 17α-hydroxyprogesterone, androst-4-ene-dione, and testosterone. […] Activity of test compound was expressed as percent inhibition relative to the control and was the mean of each group of treated animals.

`CC12CCC3C(CC[C@H]4NC(=O)CCC34C)C1CC[C@@H]2OC1CC1` (stereo partly drawn) [MDL 103,432, 17β-Cyclopropyloxy-4-aza-5α-androstan-3-one] showed an inhibition at 30 mg/kg (30 mg/kg) of 88% and an inhibition at 100 mg/kg (100 mg/kg) of 96%.
